Series [1] deals with T1, Quinolone resistance protein NorA (Staphylococcus aureus) (UniProt P0A0J7).
T1 sequence (whole entry): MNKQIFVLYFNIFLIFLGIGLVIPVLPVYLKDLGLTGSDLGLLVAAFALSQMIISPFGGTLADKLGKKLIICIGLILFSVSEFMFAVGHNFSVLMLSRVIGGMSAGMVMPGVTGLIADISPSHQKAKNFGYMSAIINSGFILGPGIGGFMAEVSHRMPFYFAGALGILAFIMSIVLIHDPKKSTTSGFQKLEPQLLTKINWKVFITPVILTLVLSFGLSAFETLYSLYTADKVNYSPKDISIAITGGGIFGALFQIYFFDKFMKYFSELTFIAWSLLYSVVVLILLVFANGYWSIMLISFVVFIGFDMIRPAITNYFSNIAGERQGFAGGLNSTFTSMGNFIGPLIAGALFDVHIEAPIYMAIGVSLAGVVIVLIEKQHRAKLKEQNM
Kind of series: Inhibition of Staphylococcus aureus 1199B NorA assessed as inhibition of ethidium bromide efflux at 50 uM measured after 5 mins by fluorometric method relative to control.

The next series has as its system Staphylococcus aureus. Kind of series: Antibacterial activity against Staphylococcus aureus 1199B by microdilution method. The format is functional.
Series [2] addresses T1, Quinolone resistance protein NorA (Staphylococcus aureus). Nature of the series: Inhibition of Staphylococcus aureus 1199B NorA assessed as potentiation of ciprofloxacin-induced antibacterial activity by checkerboard assay.
Series [3] concerns the target T2, Quinolone resistance protein NorA (Staphylococcus aureus, UniProt P0A0J7).
T2 sequence (P0A0J7 whole entry): T1 sequence (whole entry)
Nature of the series: Inhibition of Staphylococcus aureus 1199B NorA assessed as inhibition of ethidium bromide efflux measured after 5 mins by fluorometric method.

Series [4] in a line: Dissociation constant, pKa of the compound. The format is physicochemical.
The nature of series [5]: Solubility in D2O solution at 25 degC by 1H NMR analysis. The series is classed as physicochemical.
Series [6] can be described thus: Metabolic stability in human liver microsomes at 10 uM preincubated for 10 mins followed by NADPH addition measured after 30 mins by HPLC-MS/MS method. The format is ADME. The settings on record: 0.5 h. For orientation: Liver microsomes are vesicles of endoplasmic reticulum, rich in cytochrome P450 enzymes.

16 molecules from ChEMBL document CHEMBL3877305, “Improved Potency of Indole-Based NorA Efflux Pump Inhibitors: From Serendipity toward Rational Design and Development” (J Med Chem, 2017) can be followed below.

Values after ≈ are worked out from the molar mass of the structure shown.

Broadly, the inhibition is the change of the read-out against control, counted positive when it falls. In the case of `COc1cc(CNCCO)ccc1Oc1nnnn1-c1ccccc1`, in series [1], the inhibition is less than 10%.
With `CCOC(=O)c1c(C)n(Cc2ccccc2)c2ccc(OCCNCc3ccc(Oc4nnnn4-c4ccccc4)c(OC)c3)cc12`, the inhibition in series [1] worked out at 50.3%.
Usually MIC stands for the lowest concentration found to suppress growth. In turn, `CCOC(=O)c1c(C)n(Cc2ccccc2)c2ccc(OCCCN)cc12` returned a minimum inhibitory concentration (MIC) with Staphylococcus aureus greater than 100 µg/mL.
With `CCOC(=O)c1c(C)n(Cc2ccccc2)c2ccc(OCCN3CCN(CCOc4ccccc4-c4ccccc4)CC3)cc12`, the inhibition in series [1] fell in the range of 24.3 to 50%.
The molecule `CCOC(=O)c1c(C)n(Cc2ccccc2)c2ccc(OCCCN3CCCCC3)cc12` came in with a minimal inhibitory concentration (MIC) in the series on Staphylococcus aureus greater than 100 µg/mL. Further, the fractional inhibitory concentration index (FICI) in series [2] is 0.28.
Take `CCOC(=O)c1c(C)n(Cc2ccccc2)c2ccc(OCCCNCc3ccccc3)cc12`: the minimal inhibitory concentration (MIC) against Staphylococcus aureus was greater than 100 µg/mL.
What is called IC50 is the concentration that inhibits the measured activity by half. A word on the pKa: it is the pH at which an ionisable group is half protonated. What is called solubility is the concentration that dissolves in the medium under given conditions. High values mean much dissolved substance, low ones little dissolved substance. As for `CCOC(=O)c1c(C)n(Cc2ccccc2)c2ccc(OCCCNCc3ccc(Oc4nnnn4-c4ccccc4)c(OC)c3)cc12`, in series [1], the inhibition lay within 95 to 96.5%. This molecule also yielded an MIC against Staphylococcus aureus greater than 100 µg/mL. Further, the IC50 in series [3] was 1.8 to 1.82 µM. Further, the pKa in series [4] amounted to 7.21. In series [5], this molecule returned a solubility of less than 2 µM. The Stability entry in series [6] is given as “Stable”. In addition, the fractional inhibitory concentration index (FICI) in series [2] came to 0.27.
Consider `CCOC(=O)c1c(C)n(Cc2ccccc2)c2ccc(OCCCNCc3nnnn3-c3ccccc3)cc12`, for which, in series [1], the inhibition was 22.8%.
As to `CCOC(=O)c1c(C)n(Cc2ccccc2)c2ccc(OCCCN3CCN(CCCOc4ccccc4-c4ccccc4)CC3)cc12`, the inhibition in series [1] came to 12.1%.
With `CCOC(=O)c1c(C)n(Cc2ccccc2)c2ccc(OCCCNCc3ccc(F)c(OC)c3)cc12`, in series [1], the inhibition is 67%. Also, the minimal inhibitory concentration (MIC) against Staphylococcus aureus was found to be 6.3 µg/mL (≈ 12.5 µM). In series [3], the IC50 is 3.83 µM.
With `OCCCN1CCN(CCCOc2ccccc2-c2ccccc2)CC1`, in series [1], the inhibition is less than 10%.
The same measure, in the same setting: under `CCOC(=O)c1c(C)n(Cc2ccccc2)c2ccc(OCCCN3CCN(CCCOc4ccc(F)cc4)CC3)cc12` stands 53.7%.
As for `CCOC(=O)c1c(C)n(Cc2ccccc2)c2ccc(OCC(O)CNCC(O)COc3ccc4c(c3)c(C(=O)OCC)c(C)n4Cc3ccccc3)cc12` (stereo not given), the inhibition in series [1] is 78 to 100%. The IC50 in series [3] came to 19.9 µM.
For the molecule `CCOC(=O)c1c(C)n(Cc2ccccc2)c2ccc(OCCCCNCc3ccc(Oc4nnnn4-c4ccccc4)c(OC)c3)cc12`, the inhibition in series [1] came to 101%. In the series on Staphylococcus aureus, this molecule registered an MIC greater than 100 µg/mL. Also, the IC50 in series [3] came out at 2.02 µM. The molecule also gave a pKa in series [4] of 8.2. The same molecule showed a solubility in series [5] of less than 2 µM. Moreover, the Stability entry in series [6] is “Stable”. Further, the fractional inhibitory concentration index (FICI) in series [2] was determined as 0.25.
As for `CCOC(=O)c1c(C)n(Cc2ccccc2)c2ccc(OCC(O)CNCc3ccc(Oc4nnnn4-c4ccccc4)c(OC)c3)cc12` (stereo not given), the inhibition in series [1] amounted to 96.9%. For the same molecule, the MIC in the series with Staphylococcus aureus was greater than 100 µg/mL. For the same molecule, the IC50 in series [3] was found to be 4.93 µM. Also, the fractional inhibitory concentration index (FICI) in series [2] came to 0.13.
For `CCOC(=O)c1c(C)n(Cc2ccccc2)c2ccc(OCCN3CCN(CCCOc4ccccc4-c4ccccc4)CC3)cc12`, in series [1], the inhibition turned out to be 27.1%.
